# Results reported in patent US20150368203A1, “PHARMACEUTICAL FORMULATIONS CONTAINING IPIDACRINE AND THEIR USE FOR THE TREATMENT OF DISORDERS OF POTENCY AND DISORDERS OF OTHER FORMS OF SEXUAL ACTIVITY” (Limited Liability Company "KONSORTSIUM-PIK", priority 2012, published 2015).
# How the values were obtained:
# [1] = test system: patients with dementia; conditions: patients in the treatment of Alzheimer's disease; cited from earlier work
# [2] = test system: ovariectomized, hypoestrogenic rats; conditions: introduction into the lateral ventricle in the brain; cited from earlier work
# [3] = test system: hemigonadectomized rats; assay: Sexual activity of hemigonadectomized rats (hypogonadal state model); assay type: in vivo, rat
# Text: Evaluation of the effects of ipidacrine pharmaceutical formulation in rats with the reduced sexual activity caused by hemigonadectomy. The hemigonadectomy is similar to the pathological processes observed in the clinical picture and associated with the decrease in hormone production by the sex glands. The model of hypogonadal state in rats induced by the hemigonadectomy corresponds to the pathological processes observed in the clinical picture and associated with the decreased hormone production of the sex glands.
# The study of the ipidacrine pharmacological activity was conducted in albino male rats. The following six groups of animals were formed: 1—intact, 2—treated with sildenafil, 3—galantamine, 4—ipidacrine, 5—gonadectomized, 6—control.
# 30 days before the start of the main study, the experiment was performed (3 times a week for 2 weeks), namely introduction of a receptive female to the male rat. The number of ejaculations was recorded. Those animals whose level of sexual activity was characterized by stable performance of 1-2 ejaculations during the period of the test were selected.
# The selected male rats underwent the hemigonadectomy (at the right) performed under ether anesthesia. Then, during 7 and 14 days prior to the course administration of the drugs, daily testing of sexual activity of the hemigonadectomized animals was carried out. The latency period and the number of mounts, intromissions and ejaculations in different groups of the animals were considered.
# [4] = test system: male rats exposed to chronic stress (electrical current); assay: Sexual activity of male rats in the model of chronic stress caused by electrical current exposure; assay type: in vivo, rat
# Procedure: The most appropriate model (in terms of the ease of implementation) is the model of psychogenic sexual dysfunction caused by exposure to physical factors (electrical current) in rats.
# The pre-experiment with the animals was performed similar to that described in Example 2.
# The two groups of the animals similar in the sexual activity level were formed: control (administration of distilled water), pharmaceutical formulation (on ipidacrine basis at a dose of 1.7 mg/kg). The animals of the control and experimental groups were daily exposed to current with a voltage of 30V for 30 min once a minute with an impulse with duration of 1 sec. The drug was administered 30 minutes before the stress, the testing was performed 60 min after the stress.
# [5] = test system: hypoactive male rats with spontaneously reduced sexual function; assay: Sexual activity of initially hypoactive male rats with spontaneously reduced sexual function; assay type: in vivo, rat
# Text: This model is associated with the clinical conditions of anorgasmia or delayed ejaculation in humans. According to the results of the five-fold testing of the intact animals, the groups of hypoactive male rats were formed. The criterion for selection was average number of ejaculations of less than 0.5 according to the results of the five-fold testing.
# To assess the effect of ipidacrine on sexual function of rats with the reduced sexual activity, the groups of the animals with initially low manifestations of copulatory and ejaculatory components of behavior were formed. This model reflects the clinical conditions of anorgasmia and delayed ejaculation. The effect of the drug on the integral indicator of the sexual function (number of ejaculations) at a dose of 0.85 to 5.1 mg/kg when administered daily is shown in FIG. 3
smiles,measurement,setting,value
COc1cc2c(cc1OC)C(=O)C(CC1CCN(Cc3ccccc3)CC1)C2 (stereo not shown) [donepezil],sexual behavior (side effect),[1],increase in the sexual behavior
CNC(=O)Oc1ccc2c(c1)[C@]1(C)CCN(C)[C@@H]1N2C [eserine],lordosis,[2],increases the lordosis
"Nc1c2c(nc3c1CCC3)CCCC2 [ipidacrine, Ipidacrine]",level of the sexual activity (fluctuations due to external stressor effects),"[3]; 1.7 mg/kg once daily for 7 days, hemigonadectomized rats",eliminates fluctuations in the level of the sexual activity
same,time of maximum manifestation of the increase in sexual activity,"[3]; 5.1 mg/kg, 2 times a day for 14 days",3 to 5 days
same,time of maximum manifestation of the increase in sexual activity,"[3]; 0.85 to 1.7 mg/kg, 2 times a day for 14 days",11 to 14 days
same,sexual activity of the animals,"[3]; 0.85 to 5.1 mg/kg, 2 times a day for 14 days, hemigonadectomized rats",dose-dependent increase in the sexual activity
same,formation of sexual dysfunction,[4]; 1.7 mg/kg once a day prior to the stress,slower formation of sexual dysfunction
same,parameters of activity in the initial period,"[4]; 1.7 mg/kg, 1 to 3 days, versus group nonsusceptible to stress",comparable to the parameters in the group nonsusceptible to the stress
same,frequency of ejaculations,"[4]; 1.7 mg/kg, 3rd to 10th day of the experiment",60-100%
same,rate of renewal of activity after the first ejaculation,"[4]; 1.7 mg/kg, 3rd to 10th day, versus stressed animals without treatment",higher rate of renewal of activity after the first ejaculation
same,latency period of intromissions (7th day) and of intromissions and mounts (10th day) versus group without treatment,"[4]; 1.7 mg/kg, 7th and 10th day",Significant differences from the group without treatment
same,number of ejaculations,"[4]; 1.7 mg/kg, 10th and 14th day of the 14 day exposure to stress",0.4-0.6
same,latency period of mounts and intromissions compared to animals nonsusceptible to stress,"[4]; 1.7 mg/kg, starting from the 5th day",significant increase in the latency period of mounts and intromissions
same,average number of ejaculations in the group,[5]; 0.85 mg/kg daily,0.6-0.8
same,rate of occurrence of ejaculations,[5]; 0.85 mg/kg daily,80%
same,latency period of mounts and intromissions,"[5]; 0.85 mg/kg daily, 7th to 14th day, versus background, trend level, similar changes in control",reduction of the latency period of mounts and intromissions
same,time to renewal of sexual activity after the first ejaculation (on the average),"[5]; 0.85 mg/kg daily, some animals",4 to 6 min
same,sexual activity,"[5]; 0.85 mg/kg daily, starting with the 2nd week",increase in the sexual activity
same,number of animals able to ejaculate,[5]; 1.7 mg/kg,up to 80%
same,effect on the sexual function,"[5]; 1.7 mg/kg, 14 days",activating effect on the sexual function throughout the whole observation period
same,reduction in the latency time of mounts and intromissions,"[5]; 1.7 mg/kg, after the first administration",2 to 4 fold
same,ejaculatory component,"[5]; 1.7 mg/kg, throughout the course of administration",increase of the ejaculatory component in comparison with the control
same,efficacy in spontaneous sexual hypoactivity,[5]; 5.1 mg/kg,effective only when administered for 5 days
same,manifestation of the sexual activity on subsequent administration,"[5]; 5.1 mg/kg, after the first 5 days",negative effect on the manifestation of the sexual activity
same,sexual activity (central motivational and ejaculatory components),"[5]; 5.1 mg/kg, first 5 days",increased the sexual activity in the animals during the first 5 days of observation
same,values of indicators of sexual activity,"[5]; 5.1 mg/kg, in 10, 14 days of the experiment",comparable to the control
same,latency period of mounts,"[5]; 5.1 mg/kg, in 3 days of observation, reduced from 33.0±5.35, p<0.05",9.3 ± 1.93 s
same,latency period of intromissions,"[5]; 5.1 mg/kg, in 3 days of observation, reduced from 59.8 ±11.34, p<0.05",10.5 ±1.76
